# Data as given in patent publication US10905704B2, “Agents and methods using thereof for the prevention and treatment of stem cell muscle disorders” (ECOLE POLYTECHNIQUE FEDERALE DE LAUSANNE (EPFL), priority 2015, dated 2021).
# How the values were obtained:
# primary MuSCs = assay: Respirometry on MuSCs; format: cell-based, C57BL/6J mice; details: primary MuSCs isolated from NR-treated aged mice
# Description: Respirometry on MuSCs. Basal and uncoupled oxygen consumption rates (OCRs) were measured using the Seahorse extracellular flux bioanalyzer (XF96, Seahorse Bioscience Inc.). To uncouple mitochondria, 5 uM of FCCP was injected after a basal respiration measurement. All measurements were performed in triplicates and results were normalized to total cell number seeded (primary MuSCs) assessed using a Bradford kit (Bio-Rad).
# C2C12 myoblasts [1] = assay: Respirometry on C2C12 myoblasts (OCR, ECAR); format: cell-based, mouse; details: C2C12 cells, NR vs PBS for 6 hours, FIG. 4J
# Description: Cell culture and treatments were prepared according to description of Example 3. C2C12 mouse myoblasts were grown in DMEM (4.5 g/1 glucose, Gibco) supplemented with 10% FBS and penicillin/streptomycin (1×, Gibco). Cell transformation with Phb (Santa Cruz) and Phb2 shRNA (Santa Cruz) were performed using jetPEI DNA transfection kit (Polyplus), according to manufacturer's instructions. Cells were treated with 1 mM NR or PBS for 6 hours before cell harvesting or fixation. Respirometry on C2C12 myoblasts. Basal and uncoupled oxygen consumption rates (OCRs) and the extracellular acidification rate (ECAR) was measured using the Seahorse extracellular flux bioanalyzer (XF96, Seahorse Bioscience Inc.). To uncouple mitochondria, 5 uM of FCCP was injected after a basal respiration measurement. All measurements were performed in triplicates and results were normalized to total protein amount (C2C12 cells), assessed using a Bradford kit (Bio-Rad).
# muscle = assay: Cardiotoxin-induced muscle damage in NR-treated Mdx mice; format: in vivo
# Description: (§1) Cardiotoxin-induced muscle damage. Animals were anesthetized using Isoflurane in oxygen from a precision vaporizer. 50 μl of 20 μM Naje mossambica mossambica cardiotoxin (Sigma) was injected intramuscularly cross the skin and directly into the tibialis anterior (TA) muscle. Mice were sacrificed at 7 and 14 days after injury. TA muscles were immediately embedded in Thermo Scientific™ Shandon™ Cryomatrix™ and frozen in isopentane, cooled in liquid nitrogen, for 2 mins before being transferred to dry ice and stored at −80° C.
# Histology. TA muscles were harvested from anaesthetized mice and immediately frozen in Tissue-TEK® OCT compound (PST). 8-μm cryosections were collected and fixed with 4% paraformaldehyde, which are either stained with haematoxylin/eosin (HE) or antibodies. For immunostainings, heat activated antigen retrieval was performed in pH 6.0 citrate buffer for 10 min at 65° C. After washing with PBS-0.1% tween 20 (PBST), the sections were blocked with 10% affinipure Fab goat anti mouse IgG (Jackson Immunoresearch) in PBST for 60 min and PBST containing 2% BSA and 5% goat serum for 30 min at room temperature. Primary antibodies were then applied over night at 4° C. The following antibodies were used: anti-eMHC (Developmental Studies Hybridoma Bank, DSHB, University of Iowa), anti-Pax7 (DSHB, University of Iowa), anti-Laminin (Sigma). […]
# C2C12 myoblasts [2] = assay: Western blot of senescence and apoptosis markers in C2C12 myoblasts; format: cell-based, mouse; details: late passage C2C12 myoblasts, 6-hour NR treatment
# Description: Cell culture and treatments. FACS sorted MuSCs were grown on a 10% Matrigel (Corning)-coated dish and flasks with Fams F-10 media (Gibco), supplemented with 20% fetal bovine serum (FBS, Gibco), 2.5 ng/ml basic fibroblast growth factor (bFGF, Sigma) and penicillin/streptomycin (1×, Gibco). Dishes were coated with 10% growth factor-free Matrigel solution on ice for 7 min then transferred to a 37° C. cell culture incubator overnight before use. Cells were grown for three generations in vitro before experiments with cells plated and passaged at 10^3 cells/ml and 50% confluencies, respectively. C2C12 mouse myoblasts were grown in DMEM (4.5 g/1 glucose, Gibco) supplemented with 10% FBS and penicillin/streptomycin (1×, Gibco). Western blotting. C2C12 cells were lysed in a buffer composed of 50 mM Tris, 150 mM KCl, EDTA 1 mM, NP40 1%, nicotinamide 5 mM, sodium butyrate 1 mM and protease inhibitors cocktail (Roche) at pH 7,4. Proteins were separated by SDS-PAGE and transferred onto nitrocellulose membranes. Blocking and antibody incubations were performed in 3% BSA. The following primary antibodies were used: anti-cleavage caspase 3 (Cell Signalling); Anti-γH2AX (Millipore); anti-β-actin (Sigma). All secondary antibodies were from Jackson Immunoresearch. […]
# MuSCs = assay: Myogenesis (colony formation) assay; format: cell-based, C57BL/6J mice; details: MuSCs isolated from NR-treated aged mice
# Description: Myogenesis assay. Five MuSCs were sorted directly into wells of a Matrigel-coated 96-well cell culture plate, containing MuSC growth medium (F10, 20% FBS, 2.5 ng/ml bFGF, 1×pen/strep), using the automated cell deposition unit (ACDU) of the FACSAria II instrument (BD Biosciences). Cells were cultured at 37° C. for 5 days. Cell colony formations were counted using the DM IL LED Inverted Microscope (Leica) after fixation in freshly made or defrosted 4% paraformaldehyde (PFA) for 10 min.
# [3] = system: tibialis anterior (TA) muscle; assay: Cardiotoxin-induced muscle damage, regeneration of TA muscle; format: in vivo, C57BL/6J mice; details: for PAX7-positive MuSCs after CTX-induced damage: 7 days after CTX
# Description: as §1
# Histology. TA muscles were harvested from anaesthetized mice and immediately frozen in Tissue-TEK® OCT compound (PST). 8-μm cryosections were collected and fixed with 4% paraformaldehyde, which are either stained with haematoxylin/eosin (HE) or antibodies. For immunostainings, heat activated antigen retrieval was performed in pH 6.0 citrate buffer for 10 min at 65° C. After washing with PBS-0.1% tween 20 (PBST), the sections were blocked with 10% affinipure Fab goat anti mouse IgG (Jackson Immunoresearch) in PBST for 60 min and PBST containing 2% BSA and 5% goat serum for 30 min at room temperature. Primary antibodies were then applied over night at 4° C. The following antibodies were used: anti-eMHC (Developmental Studies Hybridoma Bank, DSHB, University of Iowa), anti-Pax7 (DSHB, University of Iowa), anti-Laminin (Sigma). Subsequently, the slides were washed in PBST and incubated with appropriate secondary antibodies and labeling dyes. For immunofluorescence, secondary antibodies were coupled to Alexa-488 or Alexa-568 fluorochromes (Life technology), and nuclei were stained with DAPI (Invitrogen). After washing in PBST, tissue sections were mounted with Dako mounting medium (Dako).
# Endurance running test = format: in vivo, C57BL/6J mice; details: aged mice, NR diet
# Description: Endurance running test. Mice were fasted 2 hours before running on a treadmill. The exercise regimen commenced at a speed of 9 cm/s with an inclination of 5 degrees. […] Mice were considered to be exhausted, and removed from the treadmill, following the accumulation of 5 or more shocks (0.1 mA) per minute for two consecutive minutes. The distance traveled and time before exhaustion is registered as maximal running distance and period.
compound,measurement,setting,value
"NC(=O)c1ccc[n+]([C@@H]2O[C@H](CO)[C@@H](O)[C@H]2O)c1 [NR, nicotinamide riboside]",oxidative respiration,primary MuSCs,trend in oxidative respiration was replicated
same,glycolysis (ECAR),C2C12 myoblasts [1],reductions in glycolysis
same,oxidative respiration (OCR),C2C12 myoblasts [1],increases in oxidative respiration
same,regenerated muscle fibers (eMyHC),"muscle; 7 days after CTX, FIG. 6F",increase in regenerated muscle fibers
same,CTX-induced muscle regeneration (H/E),"muscle; 7 days of recovery, FIG. 6L",muscle regeneration was improved
same,"expression of cell senescence and apoptosis markers (γH2AX, cleaved caspase3)",C2C12 myoblasts [2],reduced the expression of cell senescence and apoptosis markers
same,myogenic colony formation (proliferation ability),MuSCs,enhanced potential to form myogenic colonies
same,muscle regeneration after CTX-induced muscle damage (H/E),"[3]; aged mice, 7 and 14 days of regeneration, FIG. 3H",accelerated muscle regeneration
same,PAX7-positive MuSCs after CTX-induced damage,"[3]; aged mice, FIG. 3I-J",increases in PAX7-positive MuSCs
same,"embryonic myosin heavy chain (eMyHC) staining, newly regenerated fibers","[3]; aged mice, 7 days after CTX-induced damage, FIG. 3L",improvements in embryonic myosin heavy chain staining
same,MYOD1-positive PAX7 immunostained cells (stemness),"[3]; aged mice, 7 days after muscle damage, FIG. 3K",reduction in MYOD1-positive PAX7 immunostained cells
same,muscle regeneration after CTX-induced muscle damage,[3]; young mice,accelerated muscle regeneration
same,PAX7-positive MuSCs after CTX-induced damage,[3]; young mice,trend to increase
same,maximal running distances,Endurance running test; FIG. 3E,improvements
same,maximal running times,Endurance running test; FIG. 3F,improvements
